Reference: publication PMC9516684 (2022)

Legend:
[1] = tested on: AT (DNA, duplex) ATATATATATAT; test: luminescence titration 750 nm, Bard fit; conditions: Na+ (20 mM sodium phosphate), 20 mM sodium phosphate pH 7.0, 298 K, per base
[2] = tested on: AT (DNA, duplex) ATATATATATAT; test: UV-visible absorbance titration 415 nm, Bard fit; conditions: Na+ (20 mM sodium phosphate), 20 mM sodium phosphate pH 7.0, 298 K, per base
[3] = tested on: (5′-CCGGTACCGG)2 (TA step) (DNA, duplex) CCGGTACCGG; test: luminescence titration 750 nm, Bard fit; conditions: Na+ (20 mM sodium phosphate); 20 mM sodium phosphate pH 7.0, 298 K; s 7.6; caption says luminescence 750 nm, column head 415 nm absorbance; per base
[4] = tested on: (5′-CCGGATCCGG)2 (AT step) (DNA, duplex) CCGGATCCGG; test: luminescence titration 750 nm, Bard fit; conditions: Na+ (20 mM sodium phosphate); 20 mM sodium phosphate pH 7.0, 298 K; s 5.5; caption says luminescence 750 nm, column head 415 nm absorbance; per base
[5] = tested on: AT (DNA, duplex) ATATATATATAT; test: UV-visible absorbance titration 355 nm, Bard fit; conditions: Na+ (20 mM sodium phosphate), 20 mM sodium phosphate pH 7.0, 298 K, per base
[6] = tested on: (5′-CCGGTACCGG)2 (TA step) (DNA, duplex) CCGGTACCGG; test: UV-visible absorbance titration 355 nm, Bard fit; conditions: Na+ (20 mM sodium phosphate); 20 mM sodium phosphate pH 7.0, 298 K; site size s 3.17 (±0.07); per base
[7] = tested on: (5′-CCGGATCCGG)2 (AT step) (DNA, duplex) CCGGATCCGG; test: UV-visible absorbance titration 355 nm, Bard fit; conditions: Na+ (20 mM sodium phosphate); 20 mM sodium phosphate pH 7.0, 298 K; site size s 3.5 (±0.7); per base

SMILES	Kb ([1]; site size s 3.8 (±0.1))	Kb ([1]; site size s 5.0 (±0.1))	Kb ([2]; site size s 4.5 (±0.1))	Kb ([2]; site size s 6.0 (±0.2))	Kb ([1]; site size s 4.6 (±0.1))	Kb ([1]; site size s 7.7 (±0.08))	Kb [3]	Kb [4]	Kb ([5]; site size s 4.4 (±0.1))	Kb ([5]; site size s 5.6 (±0.1))	Kb [6]	Kb [7]
[Os+2].c1ccc2nc3c4cccnc4c4ncccc4c3nc2c1.c1cnc2c(ccc3nccnc32)n1.c1cnc2c(ccc3nccnc32)n1	8.5 (±0.5) × 10^6 M^–1	1.1 (±0.3) × 10^7 M^–1	8.7 (±1.2) × 10^6 M^–1	5.1 (±1.6) × 10^6 M^–1								
[Os+2].c1cnc2c(ccc3nccnc32)n1.c1cnc2c(ccc3nccnc32)n1.c1cnc2nc3c4cccnc4c4ncccc4c3nc2c1					4.5 (±1.3) × 10^6 M^–1	1.4 (±0.4) × 10^7 M^–1	1.4 (±0.3) × 10^6 M^–1	1.0 (±0.2) × 10^6 M^–1	2.0 (±0.3) × 10^6 M^–1	5.0 (±0.8) × 10^6 M^–1	2.2 (±0.4) × 10^6 M^–1	3.8 (±1.5) × 10^6 M^–1
